Source: the supplement of paper PMC10307832

How the values were obtained:
Assay in all cases: relative viability (nuclei count vs DMSO), 5 days (fraction); higher = more cells survive
A-427 = test system: A-427
Procedure, shortened: (§1)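 Cells from lung cancer lines were seeded into 1536-well plates and, one day later, dosed by pin tool. Treatments were either a single drug or a fixed dose of an anchor drug with five library-drug doses (not always all listed) in √10 steps. After 5 days, nuclei were stained in a one-step fixation (final 0.05% Triton X-100, 1% formaldehyde, 1 ug/ml Hoechst) and counted on 4× images, and relative viability is the treated-to-vehicle nuclei ratio, as the median of duplicate plates.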

COR-L 105 = test system: COR-L 105
Procedure, shortened: as §1

EPLC-272H = test system: EPLC-272H
Procedure, shortened: as §1

HCC-366 = test system: HCC-366
Procedure, shortened: as §1

HCC-78 = test system: HCC-78
Procedure, shortened: as §1

HOP-62 = test system: HOP-62
Procedure, shortened: as §1

LC-2-ad = test system: LC-2-ad
Procedure, shortened: as §1

LCLC-97TM1 = test system: LCLC-97TM1
Procedure, shortened: as §1

LU99A = test system: LU99A
Procedure, shortened: as §1

LXF-289 = test system: LXF-289
Procedure, shortened: as §1

NCI-H1755 = test system: NCI-H1755
Procedure, shortened: as §1

NCI-H1792 = test system: NCI-H1792
Procedure, shortened: as §1

NCI-H1793 = test system: NCI-H1793
Procedure, shortened: as §1

NCI-H1915 = test system: NCI-H1915
Procedure, shortened: as §1

NCI-H1944 = test system: NCI-H1944
Procedure, shortened: as §1

NCI-H1975 = test system: NCI-H1975
Procedure, shortened: as §1

NCI-H2085 = test system: NCI-H2085
Procedure, shortened: as §1

NCI-H2170 = test system: NCI-H2170
Procedure, shortened: as §1

NCI-H358 = test system: NCI-H358
Procedure, shortened: as §1

NCI-H460 = test system: NCI-H460
Procedure, shortened: as §1

SK-LU-1 = test system: SK-LU-1
Procedure, shortened: as §1

SW 900 = test system: SW 900
Procedure, shortened: as §1

UMC-11 = test system: UMC-11
Procedure, shortened: as §1

NC(=O)Nc1cc(-c2cccc(F)c2)sc1C(=O)N[C@H]1CCCNC1 [AZD7762] + Cc1nc(Nc2ncc(C(=O)Nc3c(C)cccc3Cl)s2)cc(N2CCN(CCO)CC2)n1 [Dasatinib] (partner 0.075 µM)
relative viability (A-427; first compound 0.01 µM): 0.83 | relative viability (A-427; first compound 0.03162 µM): 0.669 | relative viability (A-427; first compound 0.1 µM): 0.812 | relative viability (A-427; first compound 0.3162 µM): 0.663 | relative viability (A-427; first compound 1 µM): 0.218 | relative viability (COR-L 105; first compound 0.01 µM): 0.324 | relative viability (COR-L 105; first compound 0.03162 µM): 0.342 | relative viability (COR-L 105; first compound 0.1 µM): 0.324 | relative viability (COR-L 105; first compound 0.3162 µM): 0.251 | relative viability (COR-L 105; first compound 1 µM): 0.239 | relative viability (EPLC-272H; first compound 0.01 µM): 0.338 | relative viability (EPLC-272H; first compound 0.03162 µM): 0.384 | relative viability (EPLC-272H; first compound 0.1 µM): 0.365 | relative viability (EPLC-272H; first compound 0.3162 µM): 0.3 | relative viability (EPLC-272H; first compound 1 µM): 0.0994 | relative viability (HCC-366; first compound 0.01 µM): 0.707 | relative viability (HCC-366; first compound 0.03162 µM): 0.625 | relative viability (HCC-366; first compound 0.1 µM): 0.659 | relative viability (HCC-366; first compound 0.3162 µM): 0.421 | relative viability (HCC-366; first compound 1 µM): 0.177 | relative viability (HCC-78; first compound 0.01 µM): 0.409 | relative viability (HCC-78; first compound 0.03162 µM): 0.606 | relative viability (HCC-78; first compound 0.1 µM): 0.451 | relative viability (HCC-78; first compound 0.3162 µM): 0.353 | relative viability (HCC-78; first compound 1 µM): 0.232 | relative viability (HOP-62; first compound 0.01 µM): 0.727 | relative viability (HOP-62; first compound 0.03162 µM): 0.72 | relative viability (HOP-62; first compound 0.1 µM): 0.682 | relative viability (HOP-62; first compound 0.3162 µM): 0.623 | relative viability (HOP-62; first compound 1 µM): 0.341 | relative viability (LC-2-ad; first compound 0.01 µM): 0.596 | relative viability (LC-2-ad; first compound 0.03162 µM): 0.513 | relative viability (LC-2-ad; first compound 0.1 µM): 0.374 | relative viability (LC-2-ad; first compound 0.3162 µM): 0.343 | relative viability (LC-2-ad; first compound 1 µM): 0.377 | relative viability (LCLC-97TM1; first compound 0.01 µM): 0.913 | relative viability (LCLC-97TM1; first compound 0.03162 µM): 0.802 | relative viability (LCLC-97TM1; first compound 0.1 µM): 0.778 | relative viability (LCLC-97TM1; first compound 0.3162 µM): 0.572 | relative viability (LCLC-97TM1; first compound 1 µM): 0.447 | relative viability (LU99A; first compound 0.01 µM): 0.551 | relative viability (LU99A; first compound 0.03162 µM): 0.573 | relative viability (LU99A; first compound 0.1 µM): 0.51 | relative viability (LU99A; first compound 0.3162 µM): 0.419 | relative viability (LU99A; first compound 1 µM): 0.202 | relative viability (LXF-289; first compound 0.01 µM): 0.225 | relative viability (LXF-289; first compound 0.03162 µM): 0.245 | relative viability (LXF-289; first compound 0.1 µM): 0.219 | relative viability (LXF-289; first compound 0.3162 µM): 0.187 | relative viability (LXF-289; first compound 1 µM): 0.211 | relative viability (NCI-H1755; first compound 0.01 µM): 0.276 | relative viability (NCI-H1755; first compound 0.03162 µM): 0.428 | relative viability (NCI-H1755; first compound 0.1 µM): 0.416 | relative viability (NCI-H1755; first compound 0.3162 µM): 0.325 | relative viability (NCI-H1755; first compound 1 µM): 0.215 | relative viability (NCI-H1792; first compound 0.01 µM): 0.814 | relative viability (NCI-H1792; first compound 0.03162 µM): 0.861 | relative viability (NCI-H1792; first compound 0.1 µM): 0.753 | relative viability (NCI-H1792; first compound 0.3162 µM): 0.891 | relative viability (NCI-H1792; first compound 1 µM): 0.873 | relative viability (NCI-H1793; first compound 0.01 µM): 0.408 | relative viability (NCI-H1793; first compound 0.03162 µM): 0.388 | relative viability (NCI-H1793; first compound 0.1 µM): 0.426 | relative viability (NCI-H1793; first compound 0.3162 µM): 0.482 | relative viability (NCI-H1793; first compound 1 µM): 0.276 | relative viability (NCI-H1915; first compound 0.01 µM): 0.32 | relative viability (NCI-H1915; first compound 0.03162 µM): 0.319 | relative viability (NCI-H1915; first compound 0.1 µM): 0.327 | relative viability (NCI-H1915; first compound 0.3162 µM): 0.335 | relative viability (NCI-H1915; first compound 1 µM): 0.272 | relative viability (NCI-H1944; first compound 0.01 µM): 0.231 | relative viability (NCI-H1944; first compound 0.03162 µM): 0.238 | relative viability (NCI-H1944; first compound 0.1 µM): 0.252 | relative viability (NCI-H1944; first compound 0.3162 µM): 0.256 | relative viability (NCI-H1944; first compound 1 µM): 0.232 | relative viability (NCI-H1975; first compound 0.01 µM): 0.339 | relative viability (NCI-H1975; first compound 0.03162 µM): 0.347 | relative viability (NCI-H1975; first compound 0.1 µM): 0.42 | relative viability (NCI-H1975; first compound 0.3162 µM): 0.305 | relative viability (NCI-H1975; first compound 1 µM): 0.242 | relative viability (NCI-H2085; first compound 0.01 µM): 0.247 | relative viability (NCI-H2085; first compound 0.03162 µM): 0.254 | relative viability (NCI-H2085; first compound 0.1 µM): 0.243 | relative viability (NCI-H2085; first compound 0.3162 µM): 0.201 | relative viability (NCI-H2085; first compound 1 µM): 0.216 | relative viability (NCI-H2170; first compound 0.01 µM): 0.602 | relative viability (NCI-H2170; first compound 0.03162 µM): 0.584 | relative viability (NCI-H2170; first compound 0.1 µM): 0.507 | relative viability (NCI-H2170; first compound 0.3162 µM): 0.529 | relative viability (NCI-H2170; first compound 1 µM): 0.401 | relative viability (NCI-H358; first compound 0.01 µM): 0.151 | relative viability (NCI-H358; first compound 0.03162 µM): 0.182 | relative viability (NCI-H358; first compound 0.1 µM): 0.188 | relative viability (NCI-H358; first compound 0.3162 µM): 0.167 | relative viability (NCI-H358; first compound 1 µM): 0.17 | relative viability (NCI-H460; first compound 0.01 µM): 0.531 | relative viability (NCI-H460; first compound 0.03162 µM): 0.578 | relative viability (NCI-H460; first compound 0.1 µM): 0.443 | relative viability (NCI-H460; first compound 0.3162 µM): 0.304 | relative viability (NCI-H460; first compound 1 µM): 0.0715 | relative viability (SK-LU-1; first compound 0.01 µM): 0.183 | relative viability (SK-LU-1; first compound 0.03162 µM): 0.158 | relative viability (SK-LU-1; first compound 0.1 µM): 0.108 | relative viability (SK-LU-1; first compound 0.3162 µM): 0.126 | relative viability (SK-LU-1; first compound 1 µM): 0.128 | relative viability (SW 900; first compound 0.01 µM): 0.421 | relative viability (SW 900; first compound 0.03162 µM): 0.776 | relative viability (SW 900; first compound 0.1 µM): 0.625 | relative viability (SW 900; first compound 0.3162 µM): 0.674 | relative viability (SW 900; first compound 1 µM): 0.165 | relative viability (UMC-11; first compound 0.01 µM): 0.516 | relative viability (UMC-11; first compound 0.03162 µM): 0.447 | relative viability (UMC-11; first compound 0.1 µM): 0.407 | relative viability (UMC-11; first compound 0.3162 µM): 0.392 | relative viability (UMC-11; first compound 1 µM): 0.215
